Measurements reported in patent EP0751947B1, “GLUCOSIDIC DERIVATIVES OF N-ACYL ALKYLAMINES EXERTING NEUROPROTECTIVE, NEUROTROPHIC AND ANTI-INFLAMMATORY ACTION, USEFUL IN ACUTE AND CHRONIC DISORDERS OF THE CENTRAL NERVOUS SYSTEM CONNECTED WITH EXCITOTOXICITY” (LIFEGROUP S.p.A., priority 1994, dated 1995).

Legend:
granule cells = experiment: neuroprotective effect against Excitatory Amino Acids (L-glutamic acid)-induced neuronal death in vitro, cell survival by MTT; type: cell-based, mouse; conditions: for survived cells (%): A: Glu 500 µM, 5 min, incubated 24 hrs; for cytoprotection against Glu neurotoxicity: result in words, Glu 500 µM for 5 min, Table 5; for Survived Cells: co-treatment
Protocol: The compounds being evaluated, referred to as No. 1, 2, 3, 4, 5, 9 and 10 (with reference to the molecules whose syntheses have been described by way of example), Diltiazem, MK 801 and monosialoganglioside GM1, were solubilized in Locke's solution and added to the culture mediums at the desired concentrations according to different treatment schedule indicated in the Tables, with a view to checking: • dose-effect relationship; • time-effect relationship vs. incubation time (start and duration) and exposure to neurotoxin.
Granule cell cultures were prepared from post natal day 8-9 mouse Balb-6 cerebellum. The cells were suspended in EBM + 2mM L-glutamine, 100 U/ml penicillin, 50 µg/l gentamicin, 25 mM KCl and 10% fetal calf serum, plated on polylysine substrate, cultured for 8-10 days, and exposed to: i) L-glutamic acid (100 µM) at room temperature for 30-40 min. ii) L-glutamic acid (500 µM) at room temperature for 5 min.
The compounds being evaluated were incubated at different times (2 hrs before and at the same time as exposure) or for different times ranging from 5 to 60 minutes after exposure to L-glutamic acid. The cultures were then brought back to the original medium and the number of survived cells was assessed by colorimetric method (MTT) 24 hours after excitotoxic stimulation.

solubility in water = conditions: for solubility: hot water
RBL-2H3 cells = experiment: [3H]serotonin release assay in DNP-HSA stimulated RBL-2H3 cells; type: cell-based, Rat; conditions: co-treatment with DNP-HSA, 15 min; 100 µM or 60 µM (not assigned per compound)
Protocol: The compounds under evaluation as per Ex. 1, 3, 4, and 9 were dissolved in DMSO 0.2%, while the compound of Ex. 6 was dissolved in DMSO 1%, and they were added at the desired concentration of 100 µM or 60 µM.
Rat basophil leukemia cells of the secreting subline 2H3 were grown in stationary cultures at 37°C in Eagle's minimal essential medium supplemented to contain 2mM L-glutamine, 100 IU/ml penicillin and 20% (v/v) heat-inactivated fetal calf serum (FCS). Cells were passed twice a week.
A mouse monoclonal IgE which is specific for dinitrophenol (DNP) haptens (clone SPE-7; Sigma) was used. Dinitrophenylated human serum albumin (DNP-HSA) was employed as the triggering agent in these experiments. The level of conjunction was 30-40 moles of DNP per mole of albumin (Sigma). […] The culture supernatants were then collected in Eppendorf tubes, centrifuged (4 min, 3000 rpm) and 50 µl aliquots counted by standard liquid scintillation techniques. The cellular contents of each well were solubilized with 100 µl of 1% Triton X-100 in PBS, and a 50 µl aliquot counted as above. The percent of [3H]serotonin release was calculated.
Background (spontaneous) release was normally < 5 % of the total radioactivity incorporated, and was always substracted from the stimulated release value ("net" release).

[1] = solubility in organic solvents; conditions: ethanol and dmso, organic solvent or mixture
cerebellar granule cells = experiment: protection against apoptotic neuronal cell death induced by low potassium (KCl 5mM), MTT assay; type: cell-based, Mouse; conditions: compound 100 µM in DMSO 0.2%, MTT 24 hrs later
Protocol: The compounds as in Ex.3, 5, 8, 9 and 11 and GM1 were solubilized in DMSO 0.2% and added to the cells at the desired concentration.
Mouse (Balb 6, 8-9 post-natal day) cerebellar granule cells were plated in basal Eagle medium (BEM) + 10% fetal calf serum + 25 […] + 2 mM glutamine + 100 µg/ml gentamicine dishes and coated with poly/L lisine. Culture medium was replaced with serum-free medium 6-9 days after plating. […] Neuronal cell survival was measured 24 hrs later by MTT assay.

physchem [2] = experiment: physchem
physchem [3] = conditions: hot water
[4] = compound 10 µM added 0 min after Glu removal

COc1ccc([C@@H]2Sc3ccccc3N(CCN(C)C)C(=O)[C@@H]2OC(C)=O)cc1 [Diltiazem, reference compound]
survived cells (%) (granule cells; [4]): 35%
cytoprotection against Glu neurotoxicity (granule cells): does not show any significant action

CCCCCCCCCCCCCCCC(=O)NCCO[C@@H]1O[C@H](CO)[C@@H](O)[C@H](O)[C@H]1O [Example 1, 2-O-(β-D-glucopyranosyl)-N-palmitoylaminoethanol]
solubility in water (solubility in water; at room temperature, result in words): poorly soluble
solubility (solubility in water): > 10000 µg/mL
% of inhibition (serotonin net release inhibition) (RBL-2H3 cells): 57%
solubility [1]: > 10000 µg/mL
survived cells (%) pre. (granule cells; Glu 100 µM, 40 min, room temperature, compound 100 µM added 2 hrs before and then removed, survival after 24 hrs): 44%
survived cells (%) co. (granule cells; Glu 100 µM, 40 min, room temperature, compound 100 µM added at the same time, survival after 24 hrs): 57%
survived cells (%) pre.+ co. (granule cells; Glu 100 µM, 40 min, room temperature, compound 100 µM, 2 hrs before and at the same time, survival after 24 hrs): 35%
Survived Cells (granule cells; Glu 100 µM, room temperature, 40 min, compound 10 µM): 22%
Survived Cells (granule cells; Glu 100 µM, room temperature, 40 min, compound 25 µM): 35%
Survived Cells (granule cells; Glu 100 µM, room temperature, 40 min, compound 50 µM): 48%
Survived Cells (granule cells; Glu 100 µM, room temperature, 40 min, compound 100 µM): 67%
Survived Cells (granule cells; Glu 100 µM, room temperature, 40 min, compound 200 µM): 90%

O=C(NCCO[C@@H]1O[C@H](CO)[C@H](O)[C@H](O)[C@H]1O)c1ccccc1 [Example 6, 2-0-(β-D-galactopyranosyl)-N-benzoyl-aminoethanol]
solubility (solubility in water): > 10000 µg/mL
% of inhibition (serotonin net release inhibition) (RBL-2H3 cells): 54%
solubility [1]: > 10000 µg/mL

CCCCCCCCCC(=O)NCCO[C@@H]1O[C@H](CO)[C@@H](O)[C@H](O)[C@H]1O [Example 8, 2-0-(β-D-glucopyranosyl)-N-decanoyl-aminoethanol]
solubility (solubility in water): > 10000 µg/mL
Cell survival (%) (cerebellar granule cells): 51%
solubility [1]: > 10000 µg/mL

CCCCCCCCCCCCCCCCCC(=O)NCCO[C@@H]1O[C@H](CO)[C@@H](O)[C@H](O)[C@H]1O [Example 11, 2-0-(β-D-glucopyranosyl)-N-stearoyl-aminoethanol]
solubility (physchem [2]; dmso and hot isopropyl alcohol): > 10000 µg/mL
Cell survival (%) (cerebellar granule cells): 51%

O=C(CCCCCCCC(=O)NCCO[C@@H]1O[C@H](CO)[C@@H](O)[C@H](O)[C@H]1O)NCCO[C@@H]1O[C@H](CO)[C@@H](O)[C@H](O)[C@H]1O [Example 12, N,N'-bis-[2-0-(β-D-glucopyranosyl)-ethyl]-nonanediamide]
solubility (physchem [3]): > 10000 µg/mL
solubility (physchem [2]; dmso): > 10000 µg/mL

CCCCC/C=C\C/C=C\C/C=C\C/C=C\CCCC(=O)NCCO[C@@H]1O[C@H](CO)[C@@H](O)[C@H](O)[C@H]1O [Example 13, 2-0-(β-D-glucopyranosyl)-N-arachidonoyl-aminoethanol]
water solubility (solubility in water; result in words): poorly soluble
solubility [1]: > 10000 µg/mL

CCCCCCCCCCCC(=O)NCCO[C@H]1O[C@H](CO)[C@@H](O)[C@H](O)[C@H]1O [Example 14, 2-0-(α-D-glucopyranosyl)-N-dodecanoyl-aminoethanol]
solubility (physchem [3]): > 10000 µg/mL
solubility (physchem [2]; ethanol and dmso): > 10000 µg/mL

C[C@]12N[C@H](Cc3ccccc31)c1ccccc12 [MK 801, reference compound]
survived cells (%) (granule cells; [4]): 66%
survived cells (%) (granule cells; compound 10 µM added 15 min after Glu removal): 32%
survived cells (%) (granule cells; compound 10 µM added 30 min after Glu removal): 30%
cytoprotection against Glu neurotoxicity (granule cells): protective, at least partially, only after co-treatment

monosialoganglioside GM1 [reference compound]
Cell survival (%) (cerebellar granule cells): 78%
survived cells (%) (granule cells; compound 100 µM added 0 min after Glu removal): 31%
cytoprotection against Glu neurotoxicity (granule cells): does not show any significant action
